The numbers were not newly measured in US6436649B1, “Method for detecting and/or quantifying a hapten in a homogeneous phase and device for implementation thereof” (priority 1996, dated 2002), which cites them from elsewhere.

By Km is commonly meant the substrate concentration at which the rate is half of its maximum.

For data set [1], the target named is E. Coli β-lactamase (Escherichia coli, UniProt P00811). The settings on record: enzyme E. Coli; cited from earlier work.
Data set [2] addresses P99/Q908R β-lactamases (Enterobacter cloacae, UniProt P05364). Conditions: cited from earlier work.
In data set [3] the target is Citro.F. β-lactamase (Citrobacter freundii, UniProt P05193). Conditions: enzyme Citro.F.; cited from earlier work.
Chain of Citro.F. β-lactamase (P05193 21-381): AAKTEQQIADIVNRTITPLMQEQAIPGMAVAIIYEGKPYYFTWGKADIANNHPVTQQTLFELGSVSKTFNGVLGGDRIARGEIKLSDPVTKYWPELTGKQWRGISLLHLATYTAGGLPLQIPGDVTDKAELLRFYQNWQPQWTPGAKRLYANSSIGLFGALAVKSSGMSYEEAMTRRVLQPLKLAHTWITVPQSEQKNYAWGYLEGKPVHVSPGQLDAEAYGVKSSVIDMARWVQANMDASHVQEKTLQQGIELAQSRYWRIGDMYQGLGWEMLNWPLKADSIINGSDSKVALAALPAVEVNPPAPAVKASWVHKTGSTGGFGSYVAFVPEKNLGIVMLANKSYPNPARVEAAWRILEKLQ

Each structure is given as a SMILES string. Where two headings read alike, the source gives them in different places.

Chain of E. Coli β-lactamase (P00811 20-377): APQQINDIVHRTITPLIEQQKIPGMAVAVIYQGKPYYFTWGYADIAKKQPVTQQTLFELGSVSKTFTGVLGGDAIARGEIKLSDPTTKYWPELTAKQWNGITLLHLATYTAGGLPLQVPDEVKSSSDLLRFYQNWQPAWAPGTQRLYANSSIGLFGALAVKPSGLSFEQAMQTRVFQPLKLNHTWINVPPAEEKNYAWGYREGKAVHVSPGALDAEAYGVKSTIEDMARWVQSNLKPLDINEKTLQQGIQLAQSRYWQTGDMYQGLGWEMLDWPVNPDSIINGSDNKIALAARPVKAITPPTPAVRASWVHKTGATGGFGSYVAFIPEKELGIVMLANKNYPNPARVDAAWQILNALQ

As for `Cc1nnc(SCC2=C(C(=O)O)N3C(=O)[C@@H](NC(=O)Cn4cnnn4)[C@H]3SC2)s1` [Cefazolin], in data set [1], the Km is 400 µM and the kcat is on record as 3000 150 S^−1.

Consider `CO/N=C(\C(=O)N[C@@H]1C(=O)N2C(C(=O)O)=C(COC(C)=O)CS[C@H]12)c1csc(N)n1` [Cefotaxime], for which, in data set [2] (enzyme P99/Q908R), the Km is 0.01 µM and the kcat is reported as 0.01 S^−1. In data set [1], the Km is 1.7 µM and the kcat is 0.17 S^−1.

For `CC(=O)OCC1=C(C(=O)O)N2C(=O)[C@@H](NC(=O)CC#N)[C@H]2SC1` [Cephaestrile], in data set [2] (enzyme P99/Q908R), the Km was 140 µM and the kcat is on record as 143 S^−1.

In the case of `CC(=O)OCC1=C(C(=O)O)N2C(=O)[C@@H](NC(=O)[C@H](N)c3ccccc3)[C@H]2SC1` [Cephaglycine], the kcat in data set [2] (enzyme P99/Q908R) is reported as 1 S^−1. Also, the Km in data set [2] (enzyme P99/Q908R, read-out: Km) was 2 µM.

Consider `CC1=C(C(=O)O)N2C(=O)[C@@H](NC(=O)[C@H](N)c3ccccc3)[C@H]2SC1` [Cephalexin], for which the values for the kcat in data set [2] (enzyme P99/Q908R) and in data set [1] were 100 S^−1 and 38 S^−1, respectively. The Km is 10 µM in data set [2] (enzyme P99/Q908R, read-out: Km) and 4 µM in data set [1].

For `O=C(Cc1cccs1)N[C@@H]1C(=O)N2C(C(=O)[O-])=C(C[n+]3ccccc3)CS[C@H]12` [Cephaloridine], the figures for the Km in data set [2] (enzyme P99/Q908R), in data set [1] and in data set [3] were 70 µM, 170 µM and 35 µM, respectively. The kcat is on record as 650 S^−1 in data set [2] (enzyme P99/Q908R), 130 S^−1 in data set [1] and 700 S^−1 in data set [3].

With `CC(=O)OCC1=C(C(=O)O)N2C(=O)[C@@H](NC(=O)CCC[C@@H](N)C(=O)O)[C@H]2SC1` [Cephalosporin C], in data set [2] (enzyme P99/Q908R), the kcat was 1100 S^−1. In data set [2] (enzyme P99/Q908R, read-out: Km), the Km is 400 µM.

As to `CC(=O)OCC1=C(C(=O)O)N2C(=O)[C@@H](NC(=O)Cc3cccs3)[C@H]2SC1` [Cephalothin], in data set [2] (enzyme P99/Q908R), the Km is 15 µM and the kcat is reported as 200 S^−1. In data set [1], the Km is 42 µM and the kcat was 300 S^−1.

As to `COc1cccc(OC)c1C(=O)N[C@@H]1C(=O)N2[C@@H]1SC(C)(C)[C@@H]2C(=O)O` [Methicillin], the Km in data set [2] (enzyme P99/Q908R) was 0.03 µM; in data set [1], 0.15 µM; in data set [3] it was 0.002 µM. Further, the kcat is recorded as 0.007 S^−1 in data set [2] (enzyme P99/Q908R), 0.08 S^−1 in data set [1] and 0.01 S^−1 in data set [3].

For the compound `O=C(Cc1cccs1)N[C@@H]1C(=O)N2C(C(=O)O)=C(/C=C/c3ccc([N+](=O)[O-])cc3[N+](=O)[O-])CS[C@H]12` [Nitrocephin], the kcat in data set [2] (P99 enzyme, nitrocefin as reporter substrate) is 780 s⁻¹; in data set [2] (enzyme P99/Q908R), 780 S^−1; in data set [1], 500 S^−1; in data set [3] it was 300 S^−1. The Km is 25 µM in data set [2] (enzyme P99/Q908R, read-out: Km); 500 µM in data set [1]; 12 µM in data set [3].
